Measurements from patent US20230059107A1, “STABLE TOPICAL COMPOSITIONS OF FENOLDOPAM” (TARO PHARMACEUTICAL INDUSTRIES LTD., priority 2019, published 2023).
Where two headings read alike, the source gives them in different places. Marks after values point to notes of the source that are not given here.

Key:
[1] = system: inflammatory markers of the psoriatic xenotransplants (Ki-67, HLA-DR, CD8, CD4, IL-17); assay: Human skin xenotransplant model of psoriasis: immunohistochemical staining for Ki-67, HLA-DR, CD8, CD4 and IL-17; assay type: in vivo
Procedure: (§1) Fourteen days after starting the treatment (four weeks following the injections), blood samples are taken and the skin is harvested. The grafts are analyzed histologically and immunohistochemically for psoriatic parameters.
We then stained skin sections derived from the various human xenotransplants for Ki-67 and HLA-DR: the first, a marker of cellular hyperproliferation and the second, for immune stimulation. Strong expression of Ki-67 was observed along the lower part of the epidermis in all control and vehicle groups and in the non-responders FMT xenotransplants. […] However, weak or absent HLA-DR expression was observed along the epidermis in the responders transplants treated with FMT.
Negative expression—no staining Mild—minor level of cell infiltrates of positive cells along the dermis Dense—intense level of cell infiltrates of positive cells along the dermis
To characterize the inflammatory infiltrate in the skin, we examined the expression of CD8, CD4 and IL-17+cells, which mark T lymphocytes (FIG. 1 and Tables 15, 16).
Negative expression—no staining Mild—minor level of cell infiltrates of positive cells along the dermis Dense—intense level of cell infiltrates of CD8+, CD4+IL17+positive cells along the dermis

[2] = system: psoriatic xenotransplants (normal human skin grafted, psoriatic patient T-cell injected); assay: Human skin xenotransplant model of psoriasis in beige-SCID mice: histological evaluation and epidermal thickness; assay type: in vivo; settings: for Mean epidermal thickness: mean of the group
Procedure: The efficacy of the topical stable Fenoldopam compositions developed according to the current disclosure for the treatment of psoriasis is evaluated in a human skin xenotransplant model in mice. Human skin xenotransplant models are optimally suited for performing preclinical assays that explore novel anti-psoriatic agents/treatment strategies before initiating clinical trials. The purpose of this study is to evaluate the effectiveness of Fenoldopam mesylate formulations on the histological parameters of psoriasis in the human T-cell-driven model of psoriasis.
The patients included in the study have classic plaque psoriasis, and were not treated for the disease. Normal skin from one healthy volunteer is obtained for grafting.
Healthy human skin pieces with a width of 0.4 mm and surface area of 1.5×1.5 cm are provided from residual skin of routine plastic surgery procedures from the Plastic Surgery Department of the Rambam Health Care Campus, Haifa, Israel. In addition, 20 mL blood samples were taken from the psoriatic patients.
The normal healthy human donor skin is transplanted onto the Beige-severe combined immuno-deficient mice (SCID) (weight ˜20 g).
The mice are divided into several treatment groups. Mice of each group receive activated allogeneic T-cells expressing high levels of NK cells receptors from the psoriatic donor.
Peripheral Blood Mononuclear Cells (PBMCs) from the psoriatic patients' blood are isolated and cultured in the presence of a high dose of IL-2 (100 U/mL of media) for 14 days to activate allogeneic T-cells expressing high levels of NK cells receptors.
Four weeks following the engraftment, each mouse is injected with 1×10^7 activated allogeneic IL2-enriched PBMCS from psoriatic patients (1×10^7 cells injected/mouse). Cells from different psoriasis patients are distributed equally between treatment groups. Each patient is represented in each treatment group.
Two weeks following the injections, the mice are divided randomly and treated daily for 14 constitutive days with the different topical formulations.
as §1
In this model, a psoriasis-like phenotype is induced in normal human skin grafted onto beige-severe combined immunodeficient mice by intradermal injection of natural killer/T-cells derived from psoriatic patients (Gilhar et al., J Invest Dermatol. 2002 Aug;119(2):384-91.).
The purpose of these further experiments was to verify the therapeutic effect of FMT and compare the therapeutic effects of two doses (1% versus 2%) of two different formulations (cream versus gel).
In order to address the aim of the experiment, the psoriatic humanized mice were established. 10 psoriatic patients were recruited (seven males and three females), mean age 44 years, ranging from 22 to 61 years for testing. All patients had classic plaque psoriasis. None of the patients had been treated. Normal skin from one healthy volunteer was obtained for grafting.
The experiment comprised 72 mice divided into eight groups (Table 10). All of the mice were injected with T-cells expressing NK receptors obtained from psoriatic patients according to the protocol. Thereafter, the mice were separated as follows: Group 1: non-treated control; Group 2: dexamethasone; Group 3: FMT Gel 1%; Group 4: FMT Gel 2%; Group 5: Gel (vehicle); Group 6: FMT Cream 1%; Group 7: FMT Cream 2%; and Group 8: Cream (vehicle). All groups were treated from day 14 until day 28 post T-cells injection.

[3] = cited from earlier work
[4] = intense level of cell infiltrates
[5] = minor level of cell infiltrates
[6] = topical bid, day 14 until day 28 post T-cells injection

## C[C@@H]1C[C@H]2[C@@H]3CCC4=CC(=O)C=C[C@]4(C)[C@@]3(F)[C@@H](O)C[C@]2(C)[C@@]1(O)C(=O)CO [Dexamethasone]
[1]; Diffuse—more than 50% of the epidermal area
  Epidermal HLA-DR Expression: Diffuse (grafts/total): 0/6
[1]; Focal—less than 50% of the epidermal area
  Epidermal HLA-DR Expression: Focal (grafts/total): 1/6
[1]; Non responders grafts
  CD4 Expression: Dense: 0/6
  CD4 Expression: Negative/Mild: 0/6
  CD8 Expression: Dense: 0/6
  CD8 Expression: Negative/Mild: 0/6
  Dermal HLA-DR Expression: Dense: 0/6
  Dermal HLA-DR Expression: Negative/Mild: 0/6
  IL-17 Expression: Dense: 0/6
  IL-17 Expression: Negative/Mild: 0/6
[1]; Responders grafts
  CD4 Expression: Dense: 0/6
  CD4 Expression: Negative/Mild: 6/6
  CD8 Expression: Dense: 0/6
  CD8 Expression: Negative/Mild: 6/6
  Dermal HLA-DR Expression: Dense: 0/6
  Dermal HLA-DR Expression: Negative/Mild: 6/6
  IL-17 Expression: Dense: 0/6
  IL-17 Expression: Negative/Mild: 6/6
[1]; in vivo
  Epidermal HLA-DR Expression: Negative (grafts/total): 5/6
[1]; [4]
  CD4 positive cells along the dermis: Dense: 0/10
  CD8 positive cells along the dermis: Dense: 0/10
  IL-17 positive cells along the dermis: Dense: 0/10
[1]; intense level of cell infiltrates of positive cells along the dermis
  Dermal HLA-DR Expression: Dense (grafts/total): 0/6
[1]; [5]
  CD4 positive cells along the dermis: Mild: 2/6
  CD8 positive cells along the dermis: Mild: 1/6
  IL-17 positive cells along the dermis: Mild: 1/6
[1]; minor level of cell infiltrates of positive cells along the dermis
  Dermal HLA-DR Expression: Mild (grafts/total): 2/6
[1]; no staining
  CD4 positive cells along the dermis: Negative: 4/6
  CD8 positive cells along the dermis: Negative: 5/6
  Dermal HLA-DR Expression: Negative (grafts/total): 4/6
  IL-17 positive cells along the dermis: Negative: 5/6
[2]; Donor 1
  Epidermal thickness: 338 μm
[2]; Donor 2
  Epidermal thickness: 280 μm
[2]; Donor 3
  Epidermal thickness: 290 μm
[2]; Donor 4
  Epidermal thickness: 300 μm
[2]; Donor 5
  Epidermal thickness: 305 μm
[2]; Donor 6
  Epidermal thickness: 260 μm
[2]; listed as Dexa
  Mean epidermal thickness: 295* μm
[2]; listed as dexamethasone
  Mean epidermal thickness: 295 ±26 μm
[2]; [6]
  Complete Recovery (grafts/total): 5/6
  Partial Recovery (grafts/total): 1/6
  Psoriatic Features (grafts/total): 0/6

## CS(=O)(=O)O.Oc1ccc(C2CNCCc3c2cc(O)c(O)c3Cl)cc1 (centres unmarked) [Fenoldopam mesylate, 6-chloro-2,3,4,5-tetrahydro-1-(4-hydroxyphenyl)-1H-3-benzazepine-7,8-diol, methanesulfonate]
[3]; in propylene glycol
  solubility: soluble
[3]; in water, ethanol and methanol
  solubility: sparingly soluble
